Publication PMC6631481, “De Novo Design and In Vitro Testing of Antimicrobial Peptides against Gram-Negative Bacteria” (Pharmaceuticals, 2019)
No end group written: not given here.

Tests used:
Format in all cases: cell-based
[1] = system: Escherichia coli ATCC 25922
Method: The MICs of the designed cationic peptides against Escherichia coli ATCC 25,922 strains were determined by the broth microdilution method, as described by Hancock et al.. All MIC evaluations were performed using Luria Bertani (LB) medium. Briefly, a range of each peptide concentrations (100 µg/mL, 50 µg/mL, 25 µg/mL, 12.5 µg/mL, 6.25 µg/mL, 3.125 µg/mL) was prepared by serial dilution in NaCl-depleted LB medium and added to an equal volume (250 µl) of exponentially grown bacterial culture, so that final bacterial suspension contained 5 × 10^5 CFU/mL. The samples were incubated in 2 mL polypropylene microtubes at 37 °C overnight at 300 rpm. The MIC was defined as the concentration at which no microbial growth was detected spectrophotometrically, via readings of optical density (OD) at 600 nm (Biotek ELX800 microplate reader). Growth medium containing only bacterial cells was used as a negative control. Each MIC test was carried out in two replicates and repeated three times.

[2] = system: E. asburiae/cloacae St. L P23; test: organism not typed
Source text: (§1) The following strains were used: P. aeruginosa (ATCC 27,853 and resistant strains: J4228 (R: Meropenem), BB2013-100 (FQR)); A. baumannii (Josh 28 and resistant strain Josh 230 (OXA-48); E. cloacae (resistant strains: BB2012-181(R: Meropenem), BB2013-32 (FQR)); E. aerogenes (resistant strain St. L P63 (NDM-1), E. asburiae/cloacae (resistant strain St. L P23 (NDM-1), K. pneumonia (J3702 and resistant strains: BB2009-209 (KPC-2), Oschner KP-1), Escherichia coli (BW25113 (7636) and resistant strains: JW55034 (11430) (Tol neg), BB2013-30 (R:carbapenem), ARLG-1012 (NDM)). Susceptibility testing was performed using non-cation adjusted MHB broth and polypropylene plates. Testing was also done in the presence and absence of acetic acid and BSA.

E. coli ARLG-1012 = test: microbe, parasite or virus in culture; details: ARLG-1012
Source text: as §1

K. pneumoniae J3702 = test: microbe, parasite or virus in culture; details: J3702
Source text: as §1

K. pneumoniae BB2009-209 = test: microbe, parasite or virus in culture; details: BB2009-209
Source text: as §1

P. aeruginosa ATCC 27853 = test: microbe, parasite or virus in culture; details: ATCC 27853
Source text: as §1

E. aerogenes St. L P63 = test: microbe, parasite or virus in culture; details: St. L P63
Source text: as §1

E. coli BW25113 (7636) = test: microbe, parasite or virus in culture; details: BW25113
Source text: as §1

A. baumannii Josh 28 = test: microbe, parasite or virus in culture; details: Josh 28
Source text: as §1

E. coli BB2013-30 = test: microbe, parasite or virus in culture; details: BB2013-30
Source text: as §1

E. cloacae BB2012-181 = test: microbe, parasite or virus in culture; details: BB2012-181
Source text: as §1

P. aeruginosa BB2013-100 = test: microbe, parasite or virus in culture; details: BB2013-100
Source text: as §1

[3] = system: K. pneumoniae Oschner KP-1; test: microbe, parasite or virus in culture; details: Oschner KP-1
Source text: as §1

A. baumannii Josh 230 = test: microbe, parasite or virus in culture; details: Josh 230
Source text: as §1

P. aeruginosa J4228 = test: microbe, parasite or virus in culture; details: J4228
Source text: as §1

E. cloacae BB2013-32 = test: microbe, parasite or virus in culture; details: BB2013-32
Source text: as §1

E. coli JW55034 (11430) = test: microbe, parasite or virus in culture; details: phenotype Tol neg, non-cation adjusted MHB broth, polypropylene plates, meropenem by standard CLSI method
Source text: as §1

Substance	MIC At NaCl [1]	MIC Without NaCl [1]	MIC [2]	MIC (E. coli ARLG-1012)	MIC (K. pneumoniae J3702)	MIC (K. pneumoniae BB2009-209)	MIC (P. aeruginosa ATCC 27853)	MIC (E. aerogenes St. L P63)	MIC (E. coli BW25113 (7636))	MIC (A. baumannii Josh 28)	MIC (E. coli BB2013-30)	MIC (E. cloacae BB2012-181)	MIC (P. aeruginosa BB2013-100)	MIC [3]	MIC (A. baumannii Josh 230)	MIC (P. aeruginosa J4228)	MIC (E. cloacae BB2013-32)	MIC (E. coli JW55034 (11430))
AKVLKISRRAFRK-NH2 [SP10]	>100 µg/mL	25 to 50 µg/mL																
GIKFFLKKLKKHI-NH2 [SP4]	25 to 50 µg/mL	6.25 to 12.5 µg/mL	>32 µg/mL	8 µg/mL	32 µg/mL	>32 µg/mL	8 µg/mL	16 µg/mL	8 µg/mL	2 µg/mL	16 µg/mL	>32 µg/mL	32 µg/mL	>32 µg/mL	4 µg/mL	16 µg/mL	16 µg/mL	8 µg/mL
GIKIRKLFKKLLR-NH2 [SP2]	6.25 to 12.5 µg/mL	3.125 to 6.25 µg/mL																
GWAKLITKAIKKI-NH2 [SP3]	25 to 50 µg/mL	12.5 to 25 µg/mL	32 µg/mL	4 µg/mL	16 µg/mL	>32 µg/mL	8 µg/mL	16 µg/mL	4 µg/mL	4 µg/mL	8 µg/mL	16 µg/mL	32 µg/mL	>32 µg/mL	16 µg/mL	16 µg/mL	16 µg/mL	4 µg/mL
HFKIRKRFVKKLV-NH2 [SP13]	>100 µg/mL	6.25 to 12.5 µg/mL																
